Measurements: patent publication US20040091578A1 (priority 2001, published 2004)

How the values were obtained:
[1] = target: T1, glutaredoxin (Escherichia coli, UniProt P68688); test: Reduction by glutaredoxin, mBBr/SDS-PAGE with densitometric scanning; type: biochemical
T1 sequence (P68688 1-85): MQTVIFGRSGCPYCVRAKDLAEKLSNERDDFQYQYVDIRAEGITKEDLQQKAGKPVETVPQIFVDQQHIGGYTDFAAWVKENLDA
Experimental: Direct reduction of the proteins under study was determined by a modification of the method of Crawford et al. (Crawford, N. A. et al. (1989), Arch. Biochem. Biophys. 271:223-239). The reaction was carried out in 100 mM potassium phosphate buffer, pH 7.1, containing 10 mM EDTA and 16% glycerol in a final volume of 0.1 ml. As indicated, 0.7 μg (0.1 μM) NTR and 1 μg (0.8 μM) thioredoxin (both routinely from E. coli were added to 70 μl of the buffer solution containing 1 mM NADPH and 10 μg (2 to 17 μM) of target protein. When thioredoxin was reduced by dithiothreitol (DTT, 0.5 mM), NADPH and NTR were omitted. Assays with reduced glutathione were performed similarly, but at a final concentration of 1 mM. After incubation for 20 min, 100 nmoles of mBBr were added and the reaction was continued for another 15 min. To stop the reaction and derivatize excess mBBr, 10 μl of 10% SDS and 10 μl of 100 mM β-mercaptoethanol were added and the samples were then applied to the gels. […]
This ability was tested, using glutaredoxin from E. coli and the seed proteins currently under study. Reduction activity was monitored by the mBBr/SDS polyacrylamide gel electrophoresis procedure coupled with densitometric scanning.

[2] = target: T2, Fructose Bisphosphatase (Spinacia oleracea, UniProt P22418); test: Activation of chloroplast fructose bisphosphatase by thioredoxin-reduced proteins; type: biochemical, spinach; conditions: 20 μg protein, 1 μg E. coli thioredoxin, DTT; corrected for thioredoxin alone
T2 construct: purified from leaves of corn (Jacquot, J.-P. et al. (1981), Plant Physiol. 68:300-304) and spinach; from tissue; host or cells: spinach leaves
T2 sequence (P22418 58-415): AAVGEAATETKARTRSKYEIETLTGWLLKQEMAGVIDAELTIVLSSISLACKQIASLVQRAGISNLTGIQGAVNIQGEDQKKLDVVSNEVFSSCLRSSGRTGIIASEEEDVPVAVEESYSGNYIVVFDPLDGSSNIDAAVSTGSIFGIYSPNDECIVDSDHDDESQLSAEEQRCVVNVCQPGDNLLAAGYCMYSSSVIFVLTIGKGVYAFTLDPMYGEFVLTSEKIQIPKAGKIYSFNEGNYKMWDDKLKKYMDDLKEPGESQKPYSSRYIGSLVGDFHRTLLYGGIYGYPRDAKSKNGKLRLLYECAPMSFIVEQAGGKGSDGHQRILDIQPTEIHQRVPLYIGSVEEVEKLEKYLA
Experimental: (§1) The NADP-MDH, FBPase, NTR and Thioredoxin h assay methods were according to Florencio, F. J. et al. (1988), Arch. Biochem. Biophys. 266:496-507 with slight modifications as indicated. For enzyme activation assays, the preincubation time was 20 min unless specified otherwise.
(§2) The Wada et al., 1981 protocol was used for assaying NADP-malate dehydrogenase and fructose 1,6 bisphosphatase in the presence of thioredoxin and 2S protein. Assays were conducted under conditions in which the amount of added thioredoxin was sufficient to reduce the castor 2S protein but insufficient to activate the target enzyme appreciably. All assays were at 25° C. Unless otherwise indicated, the thioredoxin and NTR used were from E. coli. The 2S protein was monitored during purification by mBBr/SDS-polyacrylamide gel electrophoresis following its reduction by dithiothreitol and E. coli thioredoxin (Crawford et al., 1989; Kobrehel et al., 1991).

[3] = target: T3, NADP-Malate Dehydrogenase (Zea mays, UniProt P15719); test: Activation of chloroplast NADP-malate dehydrogenase by thioredoxin-reduced proteins; type: biochemical, corn; conditions: 20 μg protein with DTT-reduced thioredoxin h
T3 construct: were purified from leaves of corn; from tissue; host or cells: corn leaves
T3 sequence (P15719 41-432): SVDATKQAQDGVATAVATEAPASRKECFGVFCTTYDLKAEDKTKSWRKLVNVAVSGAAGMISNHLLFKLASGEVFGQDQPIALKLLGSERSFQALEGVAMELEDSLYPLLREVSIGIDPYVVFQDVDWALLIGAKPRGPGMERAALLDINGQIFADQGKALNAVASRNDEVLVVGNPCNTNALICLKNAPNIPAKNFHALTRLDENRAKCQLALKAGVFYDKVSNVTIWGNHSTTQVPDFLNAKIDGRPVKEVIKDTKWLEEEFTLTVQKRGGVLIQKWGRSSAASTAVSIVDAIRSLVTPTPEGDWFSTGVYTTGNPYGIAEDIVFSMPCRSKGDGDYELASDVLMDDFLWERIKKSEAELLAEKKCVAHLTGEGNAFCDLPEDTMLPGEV
Experimental: as §1
In one study 20 mM β-mercaptoethanol (β-MET) was used instead of DTT. Following preincubation, NADP-MDH was assayed spectrophoto-metrically.
as §2

For Aprotinin [Bovine lung (Aprotinin)], the “percentage reduction by glutaredoxin relative to E. coli thioredoxin” value [1] was “not affected”, the “ACTIVITY, FBPase” value [2] was 2 nkat/mg and the “ACTIVITY, NADP-MDH” value [3] was “Trace”.
